Reference: patent US20250269036A1, “METHODS FOR ENHANCEMENT OF ENGINEERED CELL THERAPIES IN CANCER TREATMENT” (PURDUE RESEARCH FOUNDATION, priority 2021, published 2025)

Experiments:
healthy mice = assay: Plasma cytokine levels in healthy mice after tail vein injection; format: in vivo
Method: (FIGS. 20A-C) Measurement of plasma IL-6 (FIG. 20A), IFNα (FIG. 20B) and TNFα (FIG. 20C) (n=3). (FIGS. 20D-F). The effect of drug concentration on plasma levels of IL-6 (FIG. 20D), IFNα (FIG. 20E), and TNFα (FIG. 20F) was determined at 1.5h, 1h, or 1h after treatment, respectively (n=2) (FIG. 20G).
(FIGS. 36C and 36D). The effect of drug on plasma levels of IL-6 (FIG. 36C) and TNFα (FIG. 36D) was determined at 1 hour or 1.5 hours after treatment.

[1] = test system: M2-induced THP-1 macrophages; assay: Secreted CCL18 and IL-1β in THP-1 macrophage supernatants by ELISA; format: cell-based, human
Method: FIGS. 6A-6D show graphical data representative of various marker levels measured from M2-induced THP-1 macrophages treated with different concentrations of drugs for 48 hours (FIGS. 6A and 6B) or for 2 hours, then displaced with fresh medium and cultured for the remaining 46 hours (FIGS. 6C and 6D). In both cases, cell supernatants were collected and secreted CCL18 protein and IL-1β was detected by ELISA.
CCL18 and IL-1β were quantified in induced THP-1 cell supernatants using a human DuoSet ELISA Development System (R&D Systems Europe, Abingdon, UK; #DY394-05) and an IL-1 beta Human ELISA Kit (Thermo Fisher Scientific, Waltham, MA; #BMS224-2) as described by manufactures. BALF samples were analyzed for mouse IFN-γ using ELISA MAX™ Deluxe (Biolegend, San Diego, CA; #430804).

fibrotic lungs = assay: Staining of healthy and fibrotic lung sections (DAPI, anti-F4/80, anti-CD206); format: in vivo, mice; settings: differences between treated groups
Text: Sections from the same healthy and fibrotic lungs described in FIG. 6 were stained with DAPI (nuclei; blue), anti-F4/80 (macrophages; red), and anti-CD206 (M2 macrophage marker; green), and images were obtained with a Leica Versa 8 whole-slide scanner as described in Methods (n=2). Scale bars, 100 μm.

[2] = Stability during incubation in culture media; format: physicochemical; settings: 37° C. in the culture media, 48 hours
Method: Indeed, Compound 1B retained the original structure after 48 hours incubation.

BM-induced mice = test system: BM-induced mice
Method: Studies were also performed to determine if macrophages in pulmonary fibrotic lungs might be specifically targeted with folate-linked drugs in vivo. […] (The BM model is widely regarded to be helpful in terms of enabling mechanistic investigations relevant to fibrogenesis in an in vivo context.)
More specifically, eight-week-old C57BL6 male mice from Charles River (average weight 22 g to 25 g) were housed under pathogen-free conditions at room temperature (22° C.) under a 12 hours light-dark cycle. Mice were placed on a folate deficient chow (Envigo Teklad Global Rat Food Pellets) for 1 week prior to the BM or PBS instillation. Fresh water and folate-deficient diet were freely available. All animal procedures were approved by the Purdue Animal Care and Use Committee in accordance with National Institute of Health guidelines.
Thereafter, the mice were anesthetized with ketamine/xylazine and the necks of the mice were shaved using hair remover lotion and then sterilized with 70% alcohol. A small incision was made on the neck to visualize the trachea. Mice were positioned at a 75-degree angle and injected intratracheally with 100 μL sterile PBS or BM (Cayman Chemicals, Ann Arbor, MI; #13877) dissolved in PBS (0.75 mg/kg) using a 1 cc syringe with 26 G needle. Body weights were monitored every other day throughout the experiment.
After 2 hours, mice were sacrificed using CO2 asphyxiation and an incision in the skin from the abdomen to neck was immediately made to expose the lungs and trachea. A small cut in the upper trachea was then introduced for insertion of a blunted, 22-gauge needle, and a nylon string was tied around the trachea to seal the trachea around the needle. The trachea (containing the inserted needle), lungs and heart were then removed en masse by carefully cutting the connective tissue beneath the lungs, and the bronchus of left lung was clipped with a Dieffenbach vessel clip. The right lung was injected with PBS and aspirated 3 times using a 1 ml syringe, and the recovered lavage fluid was saved on ice.
Bronchoalveolar lavage fluid (BALF) was then analyzed to determine how the targeted TLR7 agonist works. BALF samples were centrifuged at 1500 rpm for 5 min at 4° C. and the supernatant was aliquoted and stored at −80° C. for cytokine/chemokine analyses. Cell pellets were resuspended and cultured in pre-warmed RPMI 1640 medium for 2 hours and then washed 3× with pre-warmed PBS prior to harvesting for qPCR assay. The right lung was then tied with a nylon string and used for subsequent analysis of hydroxyproline content. The left lung was inflated with 1 ml PBS using the inserted syringe and transferred to 10% formalin solution for subsequent histological analyses.
Lobes of the right lung collected above were weighed, placed in a pressure-tight vial (Supelco Inc., Bellefonte, PA; #27003), and hydrolyzed with 6N HCl (10 ml/g, v/w) in a sand bath at 120° C. for 3.5 hours. The hydrolyzed solution was cooled at 4° C. for 15 min and transferred to a 1.5 ml Eppendorf tube prior to centrifugation at 12,000 rcf for 15 min at 4° C. Supernatant was carefully collected, aliquoted and used for hydroxyproline (HYP) analysis.
For the subsequent HYP analysis, 10 μl of sample was transferred into a 96-well plate and neutralized with 10 μl of 5.3 M sodium hydroxide solution. Isopropanol (40 μl) was then added to each well followed by 20 μl of oxidation buffer and the mixture was incubated on a shaker at room temperature for 5 min. […]

[3] = test system: M2-induced human monocyte-derived macrophages; assay: Reprogramming of M2-induced human monocyte-derived macrophages; format: cell-based; settings: 100 nM, 2 hours + 46 hours, excess FA-glucosamine
Method: Changes in both sets of cytokines were inhibited by blockade of unoccupied folate receptors with excess FA-glucosamine (2+46h, competition).

[4] = test system: IL-4, IL-6 plus IL-13 stimulated THP-1 cells (M2-like macrophages); assay: Reprogramming of M2-polarized THP-1 macrophages, marker mRNA by qPCR; format: cell-based, human
Method: THP-1 cells were initially selected as a model system because this human monocytic cell line is known to acquire an M2-like phenotype and produce significant quantities of anti-inflammatory cytokines upon stimulation with IL-4, IL-6 plus IL-13.
THP-1 cells were seeded into 96-well plates at a density of 60,000 cells/well. Cells were differentiated into unpolarized macrophages by 48 hours incubation with 200 nM PMA followed by 24 hours incubation in fresh RPMI medium. […] Cultures were maintained at 37° C. in a humidified 5% CO2 incubator.
Total RNA was isolated from 1×10^5-2×10^5 macrophages using a Quick-RNATM MicroPrep kit (Zymo Research, Irvine, CA) according to the manufacturer-recommended protocol. […] IL-6, CXCL10, IFNα, IFN-γ and CD86 were used as markers for an M1 phenotype, while CCL18, CD206, CD163 and Arg1 were employed as markers for the M2 phenotype. IL-1β, PDGFβ, MMP9 and TIMP 3 were measured as indicators of an anti-inflammatory phenotype. IRAK-4 was used as an indicator of TLR7 stimulation. To control for specificity of the amplification products, a melting curve analysis was performed. […] Each sample was analyzed independently in triplicate for each marker.
Primarily, human monocytic (THP-1) cells were induced to the M2-like phenotype using the methods and materials previously described. In particular, THP-1 cells were seeded into 96-well plates at a density of 60,000 cells/well. Cells were differentiated into unpolarized macrophages by 48h incubation with 200 nM PMA followed by 24 hours incubation in fresh RPMI medium. The resulting macrophages were polarized to an M2-like phenotype by incubation with 20 ng/ml IL-4, 20 ng/ml IL-13, and 5 ng/mL IL-6 for 48h. Cultures were maintained at 37° C. in a humidified 5% CO2 incubator.
In addition to the nonconjugated TLR7 agonist, conjugated compounds of the present disclosure were likewise evaluated. […] The cells were subsequently harvested for gene analysis by qPCR and the relative expression of CCL18 (FIG. 14A), CD206 (FIG. 14B), and IL-1β (FIG. 14C) analyzed.

[5] = incubated continuously for 48 hours, ELISA
[6] = 2 hours with drug, then drug-free medium

## CCCCc1nc2c(N)nc3ccccc3c2n1CC(C)(C)OC(=O)OCCSSCC(NC(=O)CCC(NC(=O)c1ccc(NCc2cnc3nc(N)[nH]c(=O)c3n2)cc1)C(=O)O)C(=O)O (centres unmarked) [Compound 1B]
Healthy mice; effect of drug concentration, 1.5h, 1h or 1h after treatment
  inflammatory cytokine release, dose comparison: stimulates less inflammatory cytokine release than half the dose of Compound 1A
Healthy mice; healthy mice, tail vein, 10 nmol
  systemic cytokine release (plasma IL-6, IFNα, TNFα): does not
[1]; drug exposure limited to 2 hours, then 46 hours fresh medium
  reduction of secreted CCL18 and IL-1β, comparison of compounds: superior
[1]; [5]
  secreted CCL18 polypeptide: reductions
  secreted IL-1β polypeptide: reductions
Fibrotic lungs
  proinflammatory response in vivo (lung section staining): robust proinflammatory response
[2]
  stability during incubation: remained stable
BM-induced mice; 0, 1, 3 or 10 nmoles
  lung histology with increasing dose: lung histology improved
BM-induced mice; 0, 1, 3 or 10 nmoles every other day from day 10, day 21
  hydroxyproline content of lung hydrolysates, order of efficacy by dose: 10 nmol/mouse>3 nmol/mouse>1 nmol/mouse>0 nmol/mouse
BM-induced mice; different doses, day 21
  total number of BALF cells: decreased in a dose-dependent manner
BM-induced mice; tail vein injection
  collagen stain (Masson's trichrome): strongly suppressed
BM-induced mice; treated beginning on day 10
  lung architecture (H&E staining): lung architecture that resembles that of healthy mice
[3]
  downregulation of biomarkers in presence of competitor: blocked
[4]; 2 hours incubation, harvested immediately or after further 46 hours
  cancer/M2-type markers (CCL18, CD206, IL-1β, PDGFβ mRNA): downregulated cancer/M2-type markers of macrophages more than Compound 1A
[4]; [6]
  TNFα induction: dramatically improved
  potency in reprogramming relative to comparator: superior potency relative to Compound 1A
[4]; 48 hours incubation, various concentrations
  M2 to M1 marker changes (FIGS. 3A-3F): same qualitative changes were observed, only the magnitude of the impact of Compound 1B was somewhat reduced
